{"source": "paper PMC12293755", "about": "“Synthesis and Cytotoxicity Evaluation of Denitroaristolochic Acids: Structural Insights and Mechanistic Implications in Nephrotoxicity” (Biomolecules, 2025)", "key": {"[1]": {"assay": "CCK-8 cytotoxicity assay in HK2 cells", "format": "cell-based, human", "conditions": "human, CCK-8, 24 h compound exposure, 3 to 1000 μM, ND: not detected, read-out: IC50 (μM), cytotoxic effects on HK2 cells in vitro", "method": "(§1) This study systematically investigated the cytotoxic effects and structure-activity relationships of denitroaristolochic acid analogs (DAA-II, DAA-III, DAA-IV, DAA-V) on human renal cortical proximal tubular epithelial cells (HK2) using the cell counting kit-8 (CCK-8) assay. HK2 cells were maintained in Dulbecco’s modified eagle medium (DMEM) supplemented with 10% fetal bovine serum under standard culture conditions (37 °C, 5% CO2). At 80% confluence, cells were trypsinized and seeded into 96-well plates at a density of 1 × 10^4 cells/well, followed by a 4–6 h attachment period prior to compound exposure. Stock solutions ([…]) of each DAA were prepared in DMSO and serially diluted to final concentrations ranging from 3 to 1000 μM, with DMSO concentration strictly maintained at 0.5% (v/v) in all treatment groups. Experimental controls included AA-I as positive control and 0.5% DMSO-containing medium as vehicle control. Following 24 h compound exposure, cell viability was assessed using CCK-8 reagent according to manufacturer specifications: 10 μL CCK-8 solution was added to each well, followed by 2 h incubation under light-protected conditions. Absorbance was measured at 450 nm using a microplate reader, with morphological observations conducted via inverted phase-contrast microscopy.\n(§2) This study systematically evaluated the cytotoxic effects of aristolochic acids (AAs) on HK2 cells (the HK2 cell lines were from the Cell Bank of the Chinese Academy of Sciences) using the CCK-8 assay. […] This finding provides novel insights into the toxicological mechanisms of aristolochic acid analogs, and their precise mode of action warrants further elucidation through integrated toxicological approaches, including metabolomic profiling, signaling pathway screening, and molecular docking studies."}, "[2]": {"tested_on": "HK2 cells", "assay": "CCK-8 cytotoxicity assay in HK2 cells", "format": "cell-based, human", "conditions": "CCK-8, 24 h compound exposure, 3 to 1000 μM", "method": "as §1, §2"}}, "data": [{"molecule": "COc1cccc2c1cc([N+](=O)[O-])c1c(C(=O)O)cc3c(c12)OCO3", "note": "[AA-I, aristolochic acid I, reference compound]", "values": [{"measurement": "IC50 at 24 h", "setting": "[1]", "value": 270, "unit": "µM"}]}, {"molecule": "COc1cc2ccc3c(C(=O)O)cc4c(c3c2cc1OC)OCO4", "note": "[DAA-V, 9,10-Dimethoxyphenanthro [3,4-d][1,3]dioxole-5-carboxylic acid]", "values": [{"measurement": "cytotoxicity in human renal proximal tubular epithelial cells (result in words)", "setting": "[2]", "value": "no detectable cytotoxicity"}]}, {"molecule": "O=C(O)c1cc2c(c3c1ccc1ccccc13)OCO2", "note": "[DAA-II, phenanthro [3,4-d][1,3]dioxole-5-carboxylic acid]", "values": [{"measurement": "cytotoxicity in human renal proximal tubular epithelial cells (result in words)", "setting": "[2]", "value": "no detectable cytotoxicity"}]}, {"molecule": "COc1ccc2ccc3c(C(=O)O)cc4c(c3c2c1)OCO4", "note": "[DAA-III, 10-Methoxyphenanthro [3,4-d][1,3]dioxole-5-carboxylic acid]", "values": [{"measurement": "IC50", "setting": "[1]", "value": 371, "unit": "µM"}]}, {"molecule": "COc1cc(OC)c2ccc3c(C(=O)O)cc4c(c3c2c1)OCO4", "note": "[DAA-IV, 8,10-dimethoxyphenanthro [3,4-d][1,3]dioxole-5-carboxylic acid]", "values": [{"measurement": "IC50", "setting": "[1]", "value": 515, "unit": "µM"}]}]}
